{
  "source": "patent US7476646B1",
  "about": "“Agricultural promoters/active ingredients” (CJB Industries, Inc., priority 2004, dated 2009)",
  "key": {"[1]": {"test_system": "fungal and bacterial pathogens", "assay": "Field control trial, plant growth, grower rating, phytotoxicity, overall control", "assay_type": "in vivo", "conditions": "comparison area", "text": "This composition was applied to a field to which other treatments had been applied. The conditions under which this field control was studies are summarized below.\nTreatment—400 ppm Dicocodimethylammonium chloride+1200 ppm EDTA+400 ppm Citric acid+40 ppm soyamine+3000 ppm soybean oil+180 ppm Tergitol NP-6\nThe field was visited the day of application for a pre-spray disease rating. Major problems were observed, and minor problems were observed as well. Ratings were made on the major diseases Bacterial Spot, Grey Mold, Blight, and Leaf Spot. The observations and % ratings were also taken for Rhizoctonia, Powdery Mildew, Stem Rot, and Bacterial Speck.\nThe quat salt treatment was applied at a rate of 1 gallon of the composition/100 gallons of water/acre. This relatively low treatment rate provided some concerns regarding complete coverage due to the low volume of water and bushiness of the plants. Blight and Stem Rot were both located at the lower portion of the plant and concealed by a lot of foliage.\nFour plants had been marked on day 1 so that their progress could be tracked both in terms of growth and disease control. All four had grown between 5 and 7 inches in height with a tremendous amount of flowering and new growth present.\nThe grower gave the Treatment a 4 on a scale of 1 (Poor) to 5 (Perfect), when compared to hydrogen peroxide. H is rating for hydrogen peroxide was 2.5 to 3."}, "Staphylococcus": {"test_system": "Staphylococcus", "conditions": "on Staphylococcus; cited from earlier work"}, "[2]": {"conditions": "on contact lenses; cited from earlier work"}, "Erwinia carotovora": {"test_system": "Erwinia carotovora", "assay": "Effect of quat salts on Erwinia carotovora (percent inhibition)", "assay_type": "cell-based", "procedure": "To measure the antibacterial effectiveness of the quat salts, the effect of various salts, at an application rate of 50 ppm, was measured. The data regarding the effectiveness is summarized below:\nThe effectiveness of lower concentrations of the quat salts at inhibiting Erwinia carotovora infection was also measured, where various additives were also added."}},
  "data": [
    {"compound": "S=C([S-])NCCNC(=S)[S-].[Zn+2]", "note": "[Dithane, zinc ethylenebis(dithiocarbamate)]", "values": [
      {"measurement": "response of diseases in treated area", "setting": "[1]", "result": "responding (especially on molds and mildews) but not as rapid and completely"}
    ]},
    {"compound": "Benzalkonium chloride [BAC]", "values": [
      {"measurement": "effectiveness relative to other QACs tested", "setting": "Staphylococcus", "result": "about 2.5"},
      {"measurement": "effectiveness relative to other QACs", "setting": "[2]", "result": "about 6 times"}
    ]},
    {"compound": "Cocoalkyltrimethyl ammonium chloride", "values": [
      {"measurement": "Percent Inhibition", "setting": "Erwinia carotovora; application rate of 50 ppm", "result": 25, "unit": "%"}
    ]},
    {"compound": "Dicoco dimethyl ammonium chloride", "values": [
      {"measurement": "Percent Inhibition", "setting": "Erwinia carotovora; 30 ppm dicoco dimethyl ammonium chloride with additive (level relative to quat)", "result": 40, "unit": "%"},
      {"measurement": "Percent Inhibition", "setting": "Erwinia carotovora; application rate of 50 ppm", "result": 75, "unit": "%"}
    ]},
    {"compound": "Ditallow dimethyl ammonium chloride", "values": [
      {"measurement": "Percent Inhibition", "setting": "Erwinia carotovora; application rate of 50 ppm", "result": 50, "unit": "%"}
    ]},
    {"compound": "Soyalkyltrimethyl ammonium chloride", "values": [
      {"measurement": "Percent Inhibition", "setting": "Erwinia carotovora; application rate of 50 ppm", "result": 35, "unit": "%"}
    ]},
    {"compound": "Tallowalkyltrimethyl ammonium chloride", "values": [
      {"measurement": "Percent Inhibition", "setting": "Erwinia carotovora; application rate of 50 ppm", "result": 30, "unit": "%"}
    ]}
  ]
}
